Patent publication US20170173069A1, “METHODS OF NUCLEOTIDE AND GENE DELIVERY USING MEMBRANE TRANSPORT MECHANISMS” (The Charlotte Mecklenburg Hospital Authority d/b/a …, priority 2015, published 2017)

System: dystrophin exon 23
Experiment: Dystrophin expression (immunostaining of muscle sections) in mdx dystrophic mice after antisense oligonucleotide PMOE23
Assay type: in vivo, mouse
Procedure: The mdx dystrophic mouse contains a nonsense point mutation in the dystrophin exon 23. PMOE23 (5′[…]-3′) (SEQ ID NO:1) oligo binds to the exon-intron boundary of the dystrophin exon 23, resulting in the skip of the exon 23 and restoration of the reading frame and the expression of the dystrophin protein. The mdx mice are treated with antisense oligonuleotide PMOE23 (5′[…]-3′) (SEQ ID NO:1) via intravenous injection and the muscles are examined 2 weeks later. Saline treated, mouse was treated with saline without PMO as control. PMO only, mouse was treated with single dose 1 mg PMO only. PMO+Repa, mouse was treated with single dose 1 mg PMO and Repaglinide. 100 microgram Repaglinide was gavaged before the injection of PMO. Quad, quadriceps. Blue are DAPI stained nuclei; red staining representing membrane localized dystrophin expression.
A comparison of levels of dystrophin expression after treatment with morpholino antisense oligonucleotide PMOE23 and Eicosapentaenoic acid (EPA)-linked PMOE23 in 4-6 weeks old mdx dystrophic mice. […] PMOE23 (5′[…]-3′) (SEQ ID NO:1) oligo binds to the exon-intron boundary of the dystrophin exon 23, resulting in the skip of the exon 23 and restoration of the reading frame and the expression of the dystrophin protein. […] 6 μm sections were cut from freshly frozen muscles and stained with rabbit anti-dystrophin antibody P7 and detected with goat-anti-rabbit Ig-Alexa 594. […] Images were taken by Olympus BX52 fluorescence microscope.
A comparison of levels of dystrophin expression after treatment with morpholino antisense oligonucleotide PMOE23 and PMOE23 in combination with the use of insulin in 4-6 weeks old mdx dystrophic mice. […] PMOE23 (5′[…]-3′) (SEQ ID NO:1) oligo binds to the exon-intron boundary of the dystrophin exon 23, resulting in the skip of the exon 23 and restoration of the reading frame and the expression of the dystrophin protein. […] 6 μm sections were cut from freshly frozen muscles and stained with rabbit anti-dystrophin antibody P7 and detected with goat-anti-rabbit Ig-Alexa 594. […] Images were taken by Olympus BX52 fluorescence microscope.

PMO only: morpholino antisense oligonucleotide PMOE23, 5′GGCCAAACCTCGGCTTACCTGAAAT-3′ (SEQ ID NO:1), skips dystrophin exon 23 (all phosphorodiamidate morpholino (PMO))
number of dystrophin positive fibers / membrane localized dystrophin expression in muscle (Example 1, FIG. 1: mdx mice, single dose 1 mg PMO intravenous, 100 microgram Repaglinide gavaged before PMO, muscles examined 2 weeks later): only a few muscle fibers expressing weak dystrophin
number of dystrophin positive fibers / membrane localized dystrophin expression in muscle (Example 2, FIG. 2: 4-6 weeks old mdx mice, single intravenous dose 1 mg PMOE23 or 0.7 mg EPA-linked PMOE23, muscles examined 2 weeks later, antibody P7): only a few muscle fibers expressing weak dystrophin
number of dystrophin positive fibers / membrane localized dystrophin expression in muscle (Example 3, FIG. 3: 4-6 weeks old mdx mice, single intravenous dose 1 mg PMOE23, 0.5 unit Insulin subcutaneously immediately after PMO, muscles examined 2 weeks later, antibody P7): only a few muscle fibers expressing weak dystrophin
